Experimental data as given in BindingDB's records for doi:10.1021/jm0503751 (University of Dublin, 2006).
pKi: −log10 of the molar value.

Columns and labels:
[1] = target: T1, Alpha-1B adrenergic receptor (Mus musculus, UniProt Q05D47)
T1 sequence (Q05D47 whole entry): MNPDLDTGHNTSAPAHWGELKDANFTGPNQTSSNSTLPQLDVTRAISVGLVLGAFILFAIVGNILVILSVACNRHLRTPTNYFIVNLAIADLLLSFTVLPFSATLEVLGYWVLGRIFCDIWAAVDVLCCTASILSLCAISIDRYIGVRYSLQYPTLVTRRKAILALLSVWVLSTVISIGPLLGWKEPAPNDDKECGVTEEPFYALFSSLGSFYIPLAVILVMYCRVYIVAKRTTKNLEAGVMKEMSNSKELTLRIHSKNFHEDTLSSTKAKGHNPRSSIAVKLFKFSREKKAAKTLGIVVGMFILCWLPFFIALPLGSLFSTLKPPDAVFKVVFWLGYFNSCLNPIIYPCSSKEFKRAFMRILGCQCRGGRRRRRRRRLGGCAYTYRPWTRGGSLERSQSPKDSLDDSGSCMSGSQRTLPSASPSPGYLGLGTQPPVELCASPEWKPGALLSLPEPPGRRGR

[2] = target: T2, Alpha-1A adrenergic receptor (Homo sapiens, UniProt P35348)
T2 sequence (P35348 whole entry): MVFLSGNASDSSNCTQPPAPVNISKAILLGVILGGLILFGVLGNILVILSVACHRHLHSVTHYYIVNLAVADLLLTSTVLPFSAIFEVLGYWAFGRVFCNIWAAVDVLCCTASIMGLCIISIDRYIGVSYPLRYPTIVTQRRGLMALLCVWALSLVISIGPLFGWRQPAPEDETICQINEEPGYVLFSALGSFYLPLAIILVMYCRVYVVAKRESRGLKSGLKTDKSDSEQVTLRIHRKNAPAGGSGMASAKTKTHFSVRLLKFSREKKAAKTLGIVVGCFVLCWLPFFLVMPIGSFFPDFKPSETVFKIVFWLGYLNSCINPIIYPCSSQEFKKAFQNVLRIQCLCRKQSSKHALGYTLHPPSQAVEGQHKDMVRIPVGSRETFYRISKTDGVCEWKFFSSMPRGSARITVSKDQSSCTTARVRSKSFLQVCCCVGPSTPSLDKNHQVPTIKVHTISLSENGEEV

Row | Structure (SMILES) | pKi [1] | pKi [2]
1 | CC(C)(Cc1c[nH]c2ccc(Cl)cc12)NCCOc1ccccc1OCC1CC1 | 7.80 | 7.80
2 | COc1cc2nc(N3CCN(C(=O)C4COc5ccccc5O4)CC3)nc(N)c2cc1OC (centres undefined) [UK 33,274] | 9.00 | 
3 | Cc1c[nH]c(=O)n(CCCN2CCN(c3ccc(F)cc3OCC(F)(F)F)CC2)c1=O | 7.10 | 7.00

Further compounds by rising pKi [1], results first:

Row | pKi [1] | pKi [2] | Structure (SMILES)
4 | 7.40 | 8.00 | COc1ccccc1N1CCN(CCCNc2c(C)c(=O)n(C)c(=O)n2C)CC1 [Urapidil-5-methyl]
5 | 8.00 |  | COc1cc2nc(N(C)CCCNC(=O)C3CCCO3)nc(N)c2cc1OC (centres undefined) [N-{3-[(4-amino-6,7-dimethoxyquinazolin-2-yl)(methyl)amino]propyl}tetrahydrofuran-2-carboxamide]
6 | 8.70 |  | COc1cc2nc(N3CCN(C(=O)C4CCCO4)CC3)nc(N)c2cc1OC (centres undefined) [6,7-dimethoxy-2-[4-(tetrahydrofuran-2-ylcarbonyl)piperazin-1-yl]quinazolin-4-amine]
